Experimental data published in patent US20220079909A1, “Food Supplement For Improving Sports Performance” (NUTRIBAM BV, priority 2019, published 2022).

System: male subjects
Experiment: Synergetic efficiency of sulphoraphane and curcumin in four groups: training diary, HRV, RHR (Example 4)
Assay type: in vivo, human
Conditions: 5-day period; for muscle pain and fatigue during the day (training diary): oral daily dose, compared to the negative control (Group nC, Gatorade powder); for HRV and RHR indices (overtraining): compared to the negative control (Group nC)
Protocol: The synergetic efficiency of a composition comprising both sulphoraphane and curcumin, was analysed. This analysis was realized, for monitoring the performances and recuperation of subjects, after doing a daily physical activity. The monitoring was done by means of a training diary which had to be completed three times a day, as well as by measuring the 'heart rate variability' (HRV), and the 'rest hear rate' (RHR) of these subjects. The HRV was analysed under controlled laboratory circumstances, before and after doing the prescribed daily physical activity. Analogously, the RHR was analysed under controlled laboratory circumstances, before and after doing the prescribed daily physical activity. The training diary was made up of a questionnaire, which needed to be completed by means of a scale of five (scale of […]). Questions were asked about possible muscle pain of the subjects, but also for example their energy level during the different moments of the day. 37 male subjects were selected to take part in the experiment. Their physical characteristics were as follows (average and SD): age 27.6 SD:1.6 years; weight 79.3 SD:2.1 kg; length 184 SD:3 cm. The subjects were divided into 4 groups: a group receiving only curcumin (Group C, n=10) (daily dose of 50 mg), a group receiving only sulphoraphane (Group S, n=10) (daily dose 25 mg), a group receiving both curcumin and sulphoraphane (Group C+S, n=10) (the same concentrations as the controls), and finally, a negative control was included in the experiment, it comprises a group receiving a similar dose of placebo, thereto Gatorade powder was used (Group nC, n=7). Each subject was asked to take a prescribed daily dose for five successive days. Each dose was dissolved in hot water. During this period, the subjects also had to follow a similar protein diet. The whole experiment was divided into 4 time periods, here, the different groups were tested successively. Between the different time periods, a two-week period was provided in which no experiment was carried out. The different compositions were administered orally every day in the form of a powder or dispersed in a drink. The daily dose of this powder for Group C comprised […] and 950 mg of Gatorade powder. The daily dose of this powder for Group S comprised […] and 950 mg of Gatorade powder. The daily dose of this powder for Group C+S comprised 25 mg of sulphoraphane, 50 mg of curcumin and 950 mg of Gatorade powder. The daily dose of this powder for Group nC comprised 1000 mg of Gatorade powder.

| Structure (SMILES) | muscle pain and fatigue during the day (training diary) | HRV and RHR indices (overtraining) |
| --- | --- | --- |
| COc1cc(/C=C/C(=O)CC(=O)/C=C/c2ccc(O)c(OC)c2)ccc1O [Group C, curcumin] | less muscle pain and fatigue | will probably overtrain less |
| C[S+]([O-])CCCCN=C=S (stereo not shown) [Group S, 1-isothiocyanato-4-methyl sulfinyl butane] | less muscle pain and fatigue | will probably overtrain less |
